Test results from ChEMBL document CHEMBL1201862, “PubChem BioAssay data set” (2004).
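Grown in 96-well plates, cells were treated for 48 hours with each compound at five concentrations. Insufficient inhibition: endpoint recorded as highest concentration tested. GI50 is the concentration that inhibits growth by half.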 The source made the active and inactive calls. Cut-off read from the data, not from the text of the source: active = GI50 up to about 1.1 µM and inactive = higher.

How the values were obtained:
Test in all cases: NCI-60 cell line screen, 48 h
[1] = tested on: KM12
[2] = tested on: MDA-MB-231
[3] = tested on: UACC-62
[4] = tested on: SW-620
[5] = tested on: A498
[6] = tested on: HOP-62
[7] = tested on: OVCAR-4
[8] = tested on: M14
[9] = tested on: COLO 205
[10] = tested on: BT-549
[11] = tested on: UO-31
[12] = tested on: MOLT-4
[13] = tested on: HCT-116
[14] = tested on: K562
[15] = tested on: Hs-578T
[16] = tested on: MCF7
[17] = tested on: HT-29
[18] = tested on: RXF 393
[19] = tested on: EKVX
[20] = tested on: NCI-H460
[21] = tested on: HOP-92
[22] = tested on: IGROV-1
[23] = tested on: SF-295
[24] = tested on: NCI-H226
[25] = tested on: SR
[26] = tested on: U-251
[27] = tested on: LOX IMVI
[28] = tested on: HL-60
[29] = tested on: OVCAR-8
[30] = tested on: SK-MEL-5
[31] = tested on: SK-MEL-28
[32] = tested on: DU-145
[33] = tested on: CCRF-CEM
[34] = tested on: SN12C
[35] = tested on: TK-10
[36] = tested on: SK-MEL-2
[37] = tested on: MDA-N
[38] = tested on: NCI-H23
[39] = tested on: A549
[40] = tested on: UACC-257
[41] = tested on: SF-268
[42] = tested on: OVCAR-5
[43] = tested on: 786-0
[44] = tested on: ACHN
[45] = tested on: OVCAR-3
[46] = tested on: SNB-19
[47] = tested on: SNB-75
[48] = tested on: SK-OV-3
[49] = tested on: HCT-15
[50] = tested on: SF-539
[51] = tested on: MDA-MB-435
[52] = tested on: PC-3
[53] = tested on: Malme-3M
[54] = tested on: HCC 2998
[55] = tested on: T47D
[56] = tested on: RPMI-8226
[57] = tested on: CAKI-1
[58] = tested on: NCI/ADR-RES
[59] = tested on: NCI-H522

O=C1c2c(ccc3c2CCCC3)CC1Cc1ccc2c(c1)CCCC2 (stereo not drawn)
GI50 [1]: 59.2 µM (inactive)
GI50 [2]: 37.2 µM (inactive)
GI50 [3]: 48 µM (inactive)
GI50 [4]: 61.7 µM (inactive)
GI50 [5]: > 100 µM (inactive)
GI50 [6]: 87.7 µM (inactive)
GI50 [7]: 28.8 µM (inactive)
GI50 [8]: 35.7 µM (inactive)
GI50 [9]: 30.8 µM (inactive)
GI50 [10]: > 100 µM (inactive)
GI50 [11]: > 100 µM (inactive)
GI50 [12]: 35 µM (inactive)
GI50 [13]: 25.5 µM (inactive)
GI50 [14]: 36.1 µM (inactive)
GI50 [15]: 20 µM (inactive)
GI50 [16]: 27.2 µM (inactive)
GI50 [17]: 17.1 µM (inactive)
GI50 [18]: 14.3 µM (inactive)
GI50 [19]: 45.5 µM (inactive)
GI50 [20]: 38.5 µM (inactive)
GI50 [21]: 22 µM (inactive)
GI50 [22]: > 100 µM (inactive)
GI50 [23]: 33.8 µM (inactive)
GI50 [24]: > 100 µM (inactive)
GI50 [25]: 9.08 µM (inactive)
GI50 [26]: 67 µM (inactive)
GI50 [27]: 63.8 µM (inactive)
GI50 [28]: 5.46 µM (inactive)
GI50 [29]: 88.3 µM (inactive)
GI50 [30]: 22.6 µM (inactive)
GI50 [31]: > 100 µM (inactive)
GI50 [32]: 83.4 µM (inactive)
GI50 [33]: 21.3 µM (inactive)
GI50 [34]: 45 µM (inactive)
GI50 [35]: > 100 µM (inactive)
GI50 [36]: 47.3 µM (inactive)
GI50 [37]: 39 µM (inactive)
GI50 [38]: 39.5 µM (inactive)
GI50 [39]: 41.5 µM (inactive)
GI50 [40]: 28.3 µM (inactive)
GI50 [41]: > 100 µM (inactive)
GI50 [42]: > 100 µM (inactive)
GI50 [43]: 64 µM (inactive)
GI50 [44]: 80.4 µM (inactive)
GI50 [45]: > 100 µM (inactive)
GI50 [46]: > 100 µM (inactive)
GI50 [47]: 4.68 µM (inactive)
GI50 [48]: > 100 µM (inactive)
GI50 [49]: 36.1 µM
GI50 [50]: > 100 µM (inactive)
GI50 [51]: 34 µM (inactive)
GI50 [52]: 45.5 µM (inactive)
GI50 [53]: 54.8 µM (inactive)
GI50 [54]: 34.6 µM (inactive)
GI50 [55]: 0.787 µM (active)
GI50 [56]: 21.6 µM (inactive)

COc1ccc(Nc2[nH]c(C(C)=O)c(N)c2C(=S)Nc2ccccc2)cc1
GI50 [1]: 37.5 µM (inactive)
GI50 [2]: 52 µM (inactive)
GI50 [3]: 25.9 µM (inactive)
GI50 [4]: > 100 µM (inactive)
GI50 [5]: > 100 µM (inactive)
GI50 [6]: > 100 µM (inactive)
GI50 [7]: 36.5 µM (inactive)
GI50 [8]: 26.8 µM (inactive)
GI50 [9]: 21.9 µM (inactive)
GI50 [57]: 87.3 µM (inactive)
GI50 [10]: 78 µM (inactive)
GI50 [11]: 51.6 µM (inactive)
GI50 [12]: > 100 µM (inactive)
GI50 [13]: 38.6 µM (inactive)
GI50 [14]: 45.9 µM (inactive)
GI50 [15]: 74 µM (inactive)
GI50 [16]: 23.6 µM (inactive)
GI50 [17]: 35.3 µM (inactive)
GI50 [18]: 16.6 µM (inactive)
GI50 [19]: 99.8 µM (inactive)
GI50 [20]: 48.3 µM (inactive)
GI50 [21]: > 100 µM (inactive)
GI50 [22]: 78.2 µM (inactive)
GI50 [23]: 61.5 µM (inactive)
GI50 [24]: 36.1 µM (inactive)
GI50 [25]: 33.7 µM (inactive)
GI50 [58]: > 100 µM (inactive)
GI50 [26]: 43.8 µM (inactive)
GI50 [27]: 32.1 µM (inactive)
GI50 [28]: 45.1 µM (inactive)
GI50 [59]: 36.6 µM (inactive)
GI50 [29]: 60.8 µM (inactive)
GI50 [30]: 37.2 µM (inactive)
GI50 [31]: 36.2 µM (inactive)
GI50 [32]: > 100 µM (inactive)
GI50 [33]: > 100 µM (inactive)
GI50 [34]: 86.7 µM (inactive)
GI50 [35]: 68.9 µM (inactive)
GI50 [36]: 32.9 µM (inactive)
GI50 [37]: 76.4 µM (inactive)
GI50 [38]: 65 µM (inactive)
GI50 [39]: 41.9 µM (inactive)
GI50 [40]: 52.2 µM (inactive)
GI50 [41]: 29.6 µM (inactive)
GI50 [42]: > 100 µM (inactive)
GI50 [43]: 42.5 µM (inactive)
GI50 [44]: 77.6 µM (inactive)
GI50 [45]: > 100 µM (inactive)
GI50 [46]: 82.8 µM (inactive)
GI50 [47]: > 100 µM (inactive)
GI50 [48]: > 100 µM (inactive)
GI50 [49]: 35.6 µM
GI50 [50]: 73.1 µM (inactive)
GI50 [51]: 49.4 µM (inactive)
GI50 [53]: 50.6 µM (inactive)
GI50 [54]: 28.2 µM (inactive)
GI50 [55]: 56.8 µM (inactive)
